In ChEMBL document CHEMBL4507268 (2021):

Assays:
Details in all cases: Compound concentration 1.0 uM
[1] = target: T1, Serine/threonine-protein kinase DCLK2 (Homo sapiens) (UniProt Q8N568)
T1 sequence (whole entry): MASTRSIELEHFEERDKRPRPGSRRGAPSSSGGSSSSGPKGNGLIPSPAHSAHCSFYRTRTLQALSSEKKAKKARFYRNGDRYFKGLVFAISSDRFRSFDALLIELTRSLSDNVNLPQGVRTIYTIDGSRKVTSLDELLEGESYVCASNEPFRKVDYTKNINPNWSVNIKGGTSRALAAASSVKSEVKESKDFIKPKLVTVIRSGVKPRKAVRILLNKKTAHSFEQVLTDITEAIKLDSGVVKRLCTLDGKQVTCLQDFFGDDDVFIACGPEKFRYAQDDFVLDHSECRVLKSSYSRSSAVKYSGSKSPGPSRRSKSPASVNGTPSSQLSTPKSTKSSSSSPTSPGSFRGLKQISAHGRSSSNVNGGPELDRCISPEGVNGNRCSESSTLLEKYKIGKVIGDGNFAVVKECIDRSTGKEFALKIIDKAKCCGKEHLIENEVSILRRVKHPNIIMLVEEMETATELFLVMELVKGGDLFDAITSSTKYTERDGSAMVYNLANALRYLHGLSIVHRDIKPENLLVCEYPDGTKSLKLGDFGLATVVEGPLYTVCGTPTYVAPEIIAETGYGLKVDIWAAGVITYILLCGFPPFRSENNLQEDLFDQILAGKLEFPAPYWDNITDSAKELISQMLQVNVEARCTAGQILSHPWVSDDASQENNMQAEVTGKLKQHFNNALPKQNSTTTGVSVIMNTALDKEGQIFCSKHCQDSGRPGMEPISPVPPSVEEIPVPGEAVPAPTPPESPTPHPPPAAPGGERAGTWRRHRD

[2] = target: SRSF protein kinase 3 (Homo sapiens) (UniProt Q9UPE1)
[3] = target: T2, NUAK family SNF1-like kinase 2 (Homo sapiens) (UniProt Q9H093)
T2 sequence (whole entry): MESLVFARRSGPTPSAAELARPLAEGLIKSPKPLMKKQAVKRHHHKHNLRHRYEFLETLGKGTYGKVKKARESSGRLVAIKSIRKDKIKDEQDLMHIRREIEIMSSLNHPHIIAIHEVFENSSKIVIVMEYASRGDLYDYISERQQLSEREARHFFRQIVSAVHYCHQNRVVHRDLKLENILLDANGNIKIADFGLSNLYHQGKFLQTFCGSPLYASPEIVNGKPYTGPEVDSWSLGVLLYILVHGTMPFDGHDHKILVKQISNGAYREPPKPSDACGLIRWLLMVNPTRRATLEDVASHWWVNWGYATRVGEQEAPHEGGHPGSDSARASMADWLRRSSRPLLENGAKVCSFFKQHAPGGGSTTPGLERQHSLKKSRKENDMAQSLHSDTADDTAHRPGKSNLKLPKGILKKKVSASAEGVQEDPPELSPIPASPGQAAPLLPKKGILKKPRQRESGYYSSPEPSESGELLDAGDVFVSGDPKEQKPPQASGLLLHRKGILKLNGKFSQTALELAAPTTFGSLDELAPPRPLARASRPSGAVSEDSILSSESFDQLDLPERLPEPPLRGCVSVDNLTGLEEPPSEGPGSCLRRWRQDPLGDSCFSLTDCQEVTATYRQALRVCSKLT

[4] = target: Mast/stem cell growth factor receptor Kit (Homo sapiens) (UniProt P10721)
Chain of Mast/stem cell growth factor receptor Kit (Homo sapiens) (P10721 whole entry): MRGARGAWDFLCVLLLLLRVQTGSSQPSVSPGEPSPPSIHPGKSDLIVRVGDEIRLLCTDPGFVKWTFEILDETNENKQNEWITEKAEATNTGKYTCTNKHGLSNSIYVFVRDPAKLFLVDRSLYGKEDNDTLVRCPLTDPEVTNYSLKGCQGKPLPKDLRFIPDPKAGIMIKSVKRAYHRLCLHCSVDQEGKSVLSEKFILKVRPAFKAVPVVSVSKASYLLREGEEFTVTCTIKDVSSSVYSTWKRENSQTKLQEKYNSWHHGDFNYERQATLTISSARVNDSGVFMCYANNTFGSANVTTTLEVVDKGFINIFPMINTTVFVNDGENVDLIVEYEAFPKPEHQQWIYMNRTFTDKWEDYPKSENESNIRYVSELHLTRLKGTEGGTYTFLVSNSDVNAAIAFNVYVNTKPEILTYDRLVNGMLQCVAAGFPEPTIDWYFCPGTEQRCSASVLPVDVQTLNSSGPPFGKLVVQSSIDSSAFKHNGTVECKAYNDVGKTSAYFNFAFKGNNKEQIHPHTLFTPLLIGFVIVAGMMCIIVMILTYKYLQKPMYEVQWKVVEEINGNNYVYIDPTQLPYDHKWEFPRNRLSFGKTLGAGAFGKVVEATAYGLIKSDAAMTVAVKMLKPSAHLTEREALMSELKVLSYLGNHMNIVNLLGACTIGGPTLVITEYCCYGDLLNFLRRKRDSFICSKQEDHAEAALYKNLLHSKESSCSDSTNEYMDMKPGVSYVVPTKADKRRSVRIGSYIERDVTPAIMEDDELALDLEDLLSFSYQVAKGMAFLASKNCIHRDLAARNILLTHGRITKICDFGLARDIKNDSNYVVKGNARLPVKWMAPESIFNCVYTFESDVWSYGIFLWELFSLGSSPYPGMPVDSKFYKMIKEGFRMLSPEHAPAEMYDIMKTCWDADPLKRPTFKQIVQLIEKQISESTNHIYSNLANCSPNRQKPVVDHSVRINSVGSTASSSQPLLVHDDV

[5] = target: Serine/threonine-protein kinase Chk2 (Homo sapiens) (UniProt O96017)
Chain of Serine/threonine-protein kinase Chk2 (Homo sapiens) (O96017 whole entry): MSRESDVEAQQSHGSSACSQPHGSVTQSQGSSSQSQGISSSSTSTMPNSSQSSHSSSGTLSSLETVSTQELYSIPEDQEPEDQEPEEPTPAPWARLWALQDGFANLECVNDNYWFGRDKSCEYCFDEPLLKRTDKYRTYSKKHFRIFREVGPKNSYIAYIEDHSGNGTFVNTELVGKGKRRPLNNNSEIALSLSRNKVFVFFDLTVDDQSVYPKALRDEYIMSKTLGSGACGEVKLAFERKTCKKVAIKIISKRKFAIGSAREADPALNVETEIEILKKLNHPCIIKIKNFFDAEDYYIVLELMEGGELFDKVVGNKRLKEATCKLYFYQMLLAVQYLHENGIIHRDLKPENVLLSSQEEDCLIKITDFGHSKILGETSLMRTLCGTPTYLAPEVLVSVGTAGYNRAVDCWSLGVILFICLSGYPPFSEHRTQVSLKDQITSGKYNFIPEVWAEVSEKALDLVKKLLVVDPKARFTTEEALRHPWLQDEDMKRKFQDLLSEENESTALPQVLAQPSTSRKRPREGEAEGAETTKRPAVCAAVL

[6] = target: Misshapen-like kinase 1 (Homo sapiens) (UniProt Q8N4C8)
Chain of Misshapen-like kinase 1 (Homo sapiens) (Q8N4C8 whole entry, looked up): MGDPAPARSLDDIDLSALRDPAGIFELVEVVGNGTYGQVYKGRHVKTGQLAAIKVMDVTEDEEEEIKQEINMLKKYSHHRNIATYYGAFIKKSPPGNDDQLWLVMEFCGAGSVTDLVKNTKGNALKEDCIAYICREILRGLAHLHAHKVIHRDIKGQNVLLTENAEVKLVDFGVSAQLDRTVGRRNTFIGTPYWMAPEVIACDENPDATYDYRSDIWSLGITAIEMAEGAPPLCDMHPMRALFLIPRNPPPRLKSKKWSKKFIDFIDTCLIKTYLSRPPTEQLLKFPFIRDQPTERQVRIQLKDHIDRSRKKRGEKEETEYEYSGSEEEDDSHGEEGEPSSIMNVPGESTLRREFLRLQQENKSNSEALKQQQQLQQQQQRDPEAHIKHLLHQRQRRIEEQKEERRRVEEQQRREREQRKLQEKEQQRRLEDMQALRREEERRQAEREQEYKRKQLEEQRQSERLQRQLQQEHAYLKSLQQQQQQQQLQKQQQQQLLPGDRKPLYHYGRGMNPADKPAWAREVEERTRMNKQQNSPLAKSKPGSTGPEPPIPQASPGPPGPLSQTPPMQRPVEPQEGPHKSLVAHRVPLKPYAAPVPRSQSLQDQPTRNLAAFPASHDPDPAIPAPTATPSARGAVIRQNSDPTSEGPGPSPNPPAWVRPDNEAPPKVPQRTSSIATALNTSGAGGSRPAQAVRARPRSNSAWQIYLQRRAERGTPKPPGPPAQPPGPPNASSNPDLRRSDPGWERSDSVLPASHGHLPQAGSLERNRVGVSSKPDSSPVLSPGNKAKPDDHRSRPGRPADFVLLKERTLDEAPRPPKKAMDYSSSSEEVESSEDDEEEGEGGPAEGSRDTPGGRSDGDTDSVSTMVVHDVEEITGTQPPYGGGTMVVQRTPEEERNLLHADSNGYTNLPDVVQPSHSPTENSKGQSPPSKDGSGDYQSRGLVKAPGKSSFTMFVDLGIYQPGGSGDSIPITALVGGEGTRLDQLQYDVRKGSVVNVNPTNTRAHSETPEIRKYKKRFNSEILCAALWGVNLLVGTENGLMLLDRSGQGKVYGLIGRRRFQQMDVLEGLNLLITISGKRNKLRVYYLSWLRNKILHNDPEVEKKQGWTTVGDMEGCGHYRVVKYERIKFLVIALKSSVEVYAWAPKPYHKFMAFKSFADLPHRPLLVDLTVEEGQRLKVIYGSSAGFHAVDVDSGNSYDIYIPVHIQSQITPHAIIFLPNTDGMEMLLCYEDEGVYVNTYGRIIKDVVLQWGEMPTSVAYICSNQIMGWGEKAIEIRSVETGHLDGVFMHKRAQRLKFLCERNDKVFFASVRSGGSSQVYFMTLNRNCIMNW

[7] = target: Serine/threonine-protein kinase SIK2 (Homo sapiens) (UniProt Q9H0K1)
Chain of Serine/threonine-protein kinase SIK2 (Homo sapiens) (Q9H0K1 whole entry, looked up): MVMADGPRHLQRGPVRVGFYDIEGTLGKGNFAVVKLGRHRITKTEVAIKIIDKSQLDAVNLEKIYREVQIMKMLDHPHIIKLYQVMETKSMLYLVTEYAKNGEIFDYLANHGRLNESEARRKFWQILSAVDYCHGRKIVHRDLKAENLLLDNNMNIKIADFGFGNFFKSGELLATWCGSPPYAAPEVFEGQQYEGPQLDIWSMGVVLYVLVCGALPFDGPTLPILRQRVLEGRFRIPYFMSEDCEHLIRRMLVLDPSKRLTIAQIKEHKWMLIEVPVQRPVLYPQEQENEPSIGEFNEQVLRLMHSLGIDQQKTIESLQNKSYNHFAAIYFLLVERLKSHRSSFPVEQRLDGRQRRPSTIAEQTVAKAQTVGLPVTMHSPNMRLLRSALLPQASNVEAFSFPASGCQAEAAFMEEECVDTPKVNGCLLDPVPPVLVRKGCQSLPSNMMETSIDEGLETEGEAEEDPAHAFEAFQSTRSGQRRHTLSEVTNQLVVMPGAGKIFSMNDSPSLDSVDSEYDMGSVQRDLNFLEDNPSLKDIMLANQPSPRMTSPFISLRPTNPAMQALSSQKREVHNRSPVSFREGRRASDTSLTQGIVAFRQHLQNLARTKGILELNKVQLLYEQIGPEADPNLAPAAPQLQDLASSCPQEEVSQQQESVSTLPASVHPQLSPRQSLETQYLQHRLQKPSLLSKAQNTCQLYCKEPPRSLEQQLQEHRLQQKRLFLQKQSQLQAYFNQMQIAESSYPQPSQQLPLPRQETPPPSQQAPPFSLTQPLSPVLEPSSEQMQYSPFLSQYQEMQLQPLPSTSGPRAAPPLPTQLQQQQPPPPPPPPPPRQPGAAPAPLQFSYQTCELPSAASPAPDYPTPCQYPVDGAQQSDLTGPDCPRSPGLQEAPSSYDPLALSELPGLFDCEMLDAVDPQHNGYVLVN

[8] = target: ATR/ATRIP (Homo sapiens) (UniProt Q13535+Q8WXE1)
[9] = target: T3, Serine/threonine-protein kinase 3 (Homo sapiens) (UniProt Q13188)
T3 sequence (whole entry): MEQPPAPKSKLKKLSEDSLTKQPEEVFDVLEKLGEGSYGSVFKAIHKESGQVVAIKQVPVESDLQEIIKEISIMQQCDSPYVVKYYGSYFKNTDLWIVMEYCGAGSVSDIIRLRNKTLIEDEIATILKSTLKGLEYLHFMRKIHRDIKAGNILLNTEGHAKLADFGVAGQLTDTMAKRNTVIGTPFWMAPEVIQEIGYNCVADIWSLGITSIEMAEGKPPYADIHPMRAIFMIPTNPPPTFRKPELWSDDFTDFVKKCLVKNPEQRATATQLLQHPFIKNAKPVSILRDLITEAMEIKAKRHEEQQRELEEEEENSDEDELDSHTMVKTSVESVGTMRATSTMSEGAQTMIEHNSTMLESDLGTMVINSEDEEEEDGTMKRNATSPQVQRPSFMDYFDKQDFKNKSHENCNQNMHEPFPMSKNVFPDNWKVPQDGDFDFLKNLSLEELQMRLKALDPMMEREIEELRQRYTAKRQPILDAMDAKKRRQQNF

[10] = target: Vascular endothelial growth factor receptor 1 (Homo sapiens) (UniProt P17948)
Chain of Vascular endothelial growth factor receptor 1 (Homo sapiens) (P17948 whole entry): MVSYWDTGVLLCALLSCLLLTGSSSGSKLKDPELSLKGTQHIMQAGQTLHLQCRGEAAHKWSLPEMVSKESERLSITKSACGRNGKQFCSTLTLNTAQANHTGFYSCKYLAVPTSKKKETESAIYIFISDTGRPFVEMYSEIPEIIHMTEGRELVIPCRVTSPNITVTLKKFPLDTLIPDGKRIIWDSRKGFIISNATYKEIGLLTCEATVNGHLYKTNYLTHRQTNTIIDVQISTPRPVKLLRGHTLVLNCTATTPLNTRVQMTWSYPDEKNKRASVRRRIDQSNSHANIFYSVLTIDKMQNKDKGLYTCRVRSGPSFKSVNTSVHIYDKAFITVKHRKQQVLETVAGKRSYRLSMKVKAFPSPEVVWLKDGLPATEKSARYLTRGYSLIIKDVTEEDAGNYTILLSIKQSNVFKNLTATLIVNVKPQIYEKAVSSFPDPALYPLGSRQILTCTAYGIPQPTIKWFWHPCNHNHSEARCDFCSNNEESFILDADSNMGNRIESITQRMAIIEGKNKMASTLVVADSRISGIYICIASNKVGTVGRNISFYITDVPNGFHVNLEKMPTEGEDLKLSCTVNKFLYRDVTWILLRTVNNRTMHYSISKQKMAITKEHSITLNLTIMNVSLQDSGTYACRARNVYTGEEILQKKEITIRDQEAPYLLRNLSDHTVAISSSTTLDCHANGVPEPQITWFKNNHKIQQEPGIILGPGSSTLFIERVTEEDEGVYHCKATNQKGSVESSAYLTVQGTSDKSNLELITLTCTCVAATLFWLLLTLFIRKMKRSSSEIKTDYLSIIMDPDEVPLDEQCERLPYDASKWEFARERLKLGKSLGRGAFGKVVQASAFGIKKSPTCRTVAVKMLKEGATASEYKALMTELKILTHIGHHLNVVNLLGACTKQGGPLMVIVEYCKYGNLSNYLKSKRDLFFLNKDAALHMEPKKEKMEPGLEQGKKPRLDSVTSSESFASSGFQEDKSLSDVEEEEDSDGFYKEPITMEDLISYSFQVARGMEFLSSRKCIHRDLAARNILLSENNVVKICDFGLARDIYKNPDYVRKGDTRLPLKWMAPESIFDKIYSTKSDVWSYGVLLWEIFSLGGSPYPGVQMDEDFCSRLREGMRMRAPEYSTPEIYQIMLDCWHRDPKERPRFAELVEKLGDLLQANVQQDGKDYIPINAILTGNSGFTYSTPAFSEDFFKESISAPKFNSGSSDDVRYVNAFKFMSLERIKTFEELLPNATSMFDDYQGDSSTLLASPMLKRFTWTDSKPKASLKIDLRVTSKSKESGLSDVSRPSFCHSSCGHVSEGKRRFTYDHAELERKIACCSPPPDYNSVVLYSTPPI

Measured: % residual kinase activity

CN1CCN(c2cnc3c(C4CCN(C(=O)c5ccc(OC(F)(F)F)cc5N)CC4)ncnc3c2)CC1 [BAY-885]
inactive: [1] 90% | [2] 78% | [3] 111% | [4] 104% | [5] 92% | [6] 98% | [7] 101% | [8] 100% | [9] 128% | [10] 108%
